Test results as given in the CheMixHub ionic liquid set.
± gives the uncertainty stated by the source.

Test: xn = mol fraction of the nth substance listed

C[N+](C)(C)Cc1ccccc1.[Cl-] + O
electrical conductivity [S/m], 101.3 kPa, frequency 0.001 MHz
Conditions | 298.15 K | 308.15 K | 318.15 K
x1 = 1.802e-05 | 0.0137 ± 0.0052 | 0.0183 ± 0.0062 | 0.0233 ± 0.0077
x1 = 5.406e-05 | 0.0295 ± 0.0056 | 0.0398 ± 0.0071 | 0.0456 ± 0.0084
x1 = 9.009e-05 | 0.0457 ± 0.0069 | 0.0565 ± 0.0079 | 0.0643 ± 0.0094

viscosity [mPa·s]
Conditions | 298.15 K | 303.15 K | 308.15 K | 318.15 K
100 kPa, x1 = 0.0004874 | – | 0.813 ± 0.017 | – | –
101.3 kPa, x1 = 1.802e-05 | 0.88 ± 0.045 | – | – | 0.611 ± 0.044
101.3 kPa, x1 = 5.406e-05 | – | – | 0.747 ± 0.044 | 0.627 ± 0.044
101.3 kPa, x1 = 9.009e-05 | 0.914 ± 0.045 | – | 0.766 ± 0.045 | 0.646 ± 0.044

CC(=O)Nc1ccc(O)cc1 + O + CCCC[n+]1ccn(C)c1.[Br-]
101 kPa, frequency 0.0003 MHz
Conditions | electrical conductivity [S/m]
293.15 K, x1 = 0.0005475, x3 = 1.14e-05 | 0.0067 ± 0.0039
293.15 K, x1 = 0.0005475, x3 = 1.628e-05 | 0.0094 ± 0.004
293.15 K, x1 = 0.001082, x3 = 4.9e-06 | 0.003 ± 0.0038
298.15 K, x1 = 0.0005475, x3 = 9.05e-06 | 0.0056 ± 0.004
298.15 K, x1 = 0.0005475, x3 = 1.447e-05 | 0.0085 ± 0.004
298.15 K, x1 = 0.001082, x3 = 5.63e-06 | 0.0034 ± 0.0039
298.15 K, x1 = 0.001082, x3 = 1.162e-05 | 0.0067 ± 0.0038
298.15 K, x1 = 0.001082, x3 = 1.635e-05 | 0.0092 ± 0.0039
303.15 K, x1 = 0.0005475, x3 = 5.43e-06 | 0.0036 ± 0.0041
303.15 K, x1 = 0.0005475, x3 = 1.158e-05 | 0.0071 ± 0.0037
303.15 K, x1 = 0.001082, x3 = 5.09e-06 | 0.0032 ± 0.0039
303.15 K, x1 = 0.001082, x3 = 1.162e-05 | 0.0067 ± 0.0037
303.15 K, x1 = 0.001082, x3 = 1.617e-05 | 0.0091 ± 0.0039
308.15 K, x1 = 0.0005475, x3 = 2.71e-06 | 0.0025 ± 0.0049
308.15 K, x1 = 0.0005475, x3 = 9.41e-06 | 0.0073 ± 0.0045
308.15 K, x1 = 0.001082, x3 = 5.63e-06 | 0.0038 ± 0.0042
308.15 K, x1 = 0.001082, x3 = 1.199e-05 | 0.0075 ± 0.0038

CC(=O)Nc1ccc(O)cc1 + O + CCCC[n+]1ccn(C)c1.[Cl-]
101 kPa, frequency 0.0003 MHz
Conditions | electrical conductivity [S/m]
293.15 K, x1 = 0.0005511, x3 = 5.07e-06 | 0.0028 ± 0.0035
293.15 K, x1 = 0.0005511, x3 = 8.5e-06 | 0.0044 ± 0.0034
293.15 K, x1 = 0.0005511, x3 = 1.194e-05 | 0.0061 ± 0.0034
293.15 K, x1 = 0.0005511, x3 = 1.61e-05 | 0.0081 ± 0.0034
293.15 K, x1 = 0.0005511, x3 = 1.954e-05 | 0.0096 ± 0.0034
293.15 K, x1 = 0.001084, x3 = 4.54e-06 | 0.0025 ± 0.0031
293.15 K, x1 = 0.001084, x3 = 7.63e-06 | 0.0038 ± 0.003
293.15 K, x1 = 0.001084, x3 = 1.144e-05 | 0.0055 ± 0.003
293.15 K, x1 = 0.001084, x3 = 1.471e-05 | 0.0067 ± 0.0031
293.15 K, x1 = 0.001084, x3 = 1.907e-05 | 0.0086 ± 0.003
298.15 K, x1 = 0.0005511, x3 = 2.53e-06 | 0.0016
298.15 K, x1 = 0.0005511, x3 = 4.16e-06 | 0.0025 ± 0.0038
298.15 K, x1 = 0.0005511, x3 = 6.69e-06 | 0.0039 ± 0.0037
298.15 K, x1 = 0.0005511, x3 = 8.87e-06 | 0.005 ± 0.0037
298.15 K, x1 = 0.0005511, x3 = 1.122e-05 | 0.0062 ± 0.0037
298.15 K, x1 = 0.0005511, x3 = 1.285e-05 | 0.007 ± 0.0037
298.15 K, x1 = 0.0005511, x3 = 1.701e-05 | 0.009 ± 0.0036
298.15 K, x1 = 0.001084, x3 = 4.54e-06 | 0.0028 ± 0.0036
298.15 K, x1 = 0.001084, x3 = 8.36e-06 | 0.0046 ± 0.0035
298.15 K, x1 = 0.001084, x3 = 1.235e-05 | 0.0065 ± 0.0035
298.15 K, x1 = 0.001084, x3 = 1.962e-05 | 0.0099 ± 0.0034
303.15 K, x1 = 0.0005511, x3 = 3.44e-06 | 0.0022 ± 0.0039
303.15 K, x1 = 0.0005511, x3 = 5.79e-06 | 0.0035 ± 0.0039
303.15 K, x1 = 0.0005511, x3 = 9.23e-06 | 0.0054 ± 0.0038
303.15 K, x1 = 0.0005511, x3 = 1.737e-05 | 0.0097 ± 0.0038
303.15 K, x1 = 0.001084, x3 = 2.72e-06 | 0.0018
303.15 K, x1 = 0.001084, x3 = 1.217e-05 | 0.0067 ± 0.0037
303.15 K, x1 = 0.001084, x3 = 1.726e-05 | 0.0092 ± 0.0037
308.15 K, x1 = 0.0005511, x3 = 3.98e-06 | 0.0028 ± 0.0043
308.15 K, x1 = 0.0005511, x3 = 7.6e-06 | 0.0049 ± 0.0042
308.15 K, x1 = 0.0005511, x3 = 1.031e-05 | 0.0065 ± 0.0041
308.15 K, x1 = 0.001084, x3 = 4.18e-06 | 0.0028 ± 0.0041
308.15 K, x1 = 0.001084, x3 = 8.36e-06 | 0.005 ± 0.004
308.15 K, x1 = 0.001084, x3 = 1.235e-05 | 0.0072 ± 0.004
308.15 K, x1 = 0.001084, x3 = 1.689e-05 | 0.0097 ± 0.004

CC[n+]1ccn(C)c1.O=S(=O)([N-]S(=O)(=O)C(F)(F)F)C(F)(F)F + O=C1CCCO1
100 kPa, frequency 0.005 MHz
Conditions | electrical conductivity [S/m]
293.15 K, x2 = 0 | 0.774 ± 0.023
293.15 K, x2 = 0.3005 | 1.17 ± 0.035
293.15 K, x2 = 0.5101 | 1.47 ± 0.044
293.15 K, x2 = 0.9005 | 1.58 ± 0.048
293.15 K, x2 = 0.95 | 1.13 ± 0.037
298.15 K, x2 = 0.2073 | 1.19 ± 0.036
303.15 K, x2 = 0 | 1.06 ± 0.032
303.15 K, x2 = 0.2073 | 1.34 ± 0.04
303.15 K, x2 = 0.3005 | 1.47 ± 0.044
303.15 K, x2 = 0.5101 | 1.79 ± 0.054
303.15 K, x2 = 0.7 | 2.07 ± 0.062
303.15 K, x2 = 0.7994 | 2.09 ± 0.063
303.15 K, x2 = 0.8498 | 2.06 ± 0.062
303.15 K, x2 = 0.95 | 1.32 ± 0.043
308.15 K, x2 = 0 | 1.2 ± 0.036
308.15 K, x2 = 0.7994 | 2.25 ± 0.068
313.15 K, x2 = 0 | 1.35 ± 0.041
313.15 K, x2 = 0.3005 | 1.77 ± 0.053
318.15 K, x2 = 0.2073 | 1.82 ± 0.055
318.15 K, x2 = 0.5101 | 2.31 ± 0.069
318.15 K, x2 = 0.95 | 1.59 ± 0.052
323.15 K, x2 = 0.2073 | 2.04 ± 0.061
323.15 K, x2 = 0.6 | 2.69 ± 0.081

CC[n+]1ccn(C)c1.O=S(=O)([N-]S(=O)(=O)C(F)(F)F)C(F)(F)F + O=C1OCCO1
100 kPa, x2 = 0
Conditions | viscosity [mPa·s]
383.15 K | 4.2 ± 0.4
393.15 K | 3.7 ± 0.4
